Reference: publication PMC11949107, “Polyunsaturated fatty acids and their endocannabinoid-related metabolites activity at human TRPV1 and TRPA1 ion channels expressed in HEK-293 cells” (PeerJ, 2025)
Several values for one entry are separate records, joined by “and”; a condition that tells them apart may be missing. Identical values can stand only once.

Columns and labels:
HEK-293 EV cells = test: Calcium 5 dye [Ca]i assay in HEK-293 empty vector (EV) cells; format: cell-based, human; conditions: 10 µM
Description: (§1) The cells were incubated in a 5% CO2 humidified atmosphere at 37 °C. Upon reaching approximately 90% confluence in 75 cm^2 flasks, they were trypsinized and transferred to poly-D-lysine coated 96-well plates (Corning, Castle Hill, NSW, Australia) in L-15 medium supplemented with 1% FBS, 100 U penicillin and 100 µg streptomycin ml^−1 (1% P/S), and 15 mM glucose (80 µL volume per well). After an overnight incubation (maximum of 16 h) in humidified room air at 37 °C, TRPV1 and TRPA1 receptor expression was induced 4 h before experimentation by adding to each well 10 µL tetracycline solution to a final concentration of 1 µg ml^−1.
Intracellular calcium [Ca]i levels were assessed using the calcium 5 kit from Molecular Devices (# R8186, Sunnyvale, CA, USA) on a FlexStation 3 Microplate Reader (Molecular Devices, Sunnyvale, CA, USA). […] 90 µL of the dye were loaded into each well of the plate and incubated for 1 h before reading in the FlexStation 3 at 37 °C. […] After 1 min of baseline recording, 20 µL of the drug, dissolved in HBSS with 1% dimethyl sulfoxide (DMSO) (cat # D2650; Sigma-Aldrich, Melbourne, Australia) was added (final DMSO concentration was 0.1% in well).
(§2) The response to agonists was expressed as a percentage change from the average baseline measurement taken for 60s before adding drug. Changes in fluorescence resulting from the addition of solvent were subtracted before normalization to baseline. Concentration–response curves (CRC), Emax and EC50 values were determined using a three-parameter logistic equation (GraphPad Prism, San Diego, CA, USA). […] Potencies were expressed as pEC50, which is the negative log of EC50 in moles per litre (Molar). Where appropriate, unpaired Student’s t-test were used to compare the responses of individual compounds in different conditions, while a one-way ANOVA followed by Dunnett’s multiple comparisons test was used to assess potential differences in responses elicited by a range of compounds. P < 0.05 was considered statistically significant.

human TRPA1 = target: T1, human TRPA1 (Homo sapiens, UniProt O75762); test: Calcium 5 dye [Ca]i assay in HEK-293 Flp-In T-REx cells expressing TRPA1 (agonist response); format: cell-based; conditions: for Elevation of [Ca]i in HEK-293 TRPA1 cells compared with HEK-293 EV cells: 10 µM (cinnamaldehyde 300 µM); for Change of Ca5 fluorescence, Mean ± SEM, TRPA1 (10 µM): HEK-293 TRPA1 cells, percentage of predrug baseline; for TRPA1 activation at the highest concentration tested / TRPA1 response compared with the highest concentration of cinnamaldehyde (300 µM) / TRPA1 response, Mean± SEM (N): 30 µM; for TRPA1 response, Mean± SEM (N): one-way ANOVA comparison with cinnamaldehyde 300 µM; for Emax at 30 µM: HEK293, read-out: Emax ± SEM % TRPA1 (30 µM); for [Ca]i response (change in fluorescence), individual replicates: sheet Figure 3(E); for Change in Ca5 fluorescence, individual experiments (CRC raw data): TRPA1 cells
T1 construct: Life Technologies (cells); host or cells: Flp-In T-REx HEK-293
Description: as §1
(§3) Intracellular calcium [Ca]i levels were assessed using the calcium 5 kit from Molecular Devices (# R8186, Sunnyvale, CA, USA) on a FlexStation 3 Microplate Reader (Molecular Devices, Sunnyvale, CA, USA). […] Probenecid (cat # 50027; Biotium) which helps to prevent expulsion of calcium indicator from the cells was added to a final concentration of 1.25 mM. 90 µL of the dye were loaded into each well of the plate and incubated for 1 h before reading in the FlexStation 3 at 37 °C. Fluorescence was recorded every 2 s (λ excitation = 485 nm, λ emission = 525 nm) for 5 min. After 1 min of baseline recording, 20 µL of the drug, dissolved in HBSS with 1% dimethyl sulfoxide (DMSO) (cat # D2650; Sigma-Aldrich, Melbourne, Australia) was added (final DMSO concentration was 0.1% in well).
as §2

human TRPV1 = target: T2, human TRPV1 (Homo sapiens, UniProt Q8NER1); test: Calcium 5 dye [Ca]i assay in HEK-293 Flp-In T-REx cells expressing TRPV1 (agonist response); format: cell-based; conditions: for Elevation of [Ca]i in HEK-293 TRPV1 cells compared with HEK-293 EV cells / Change of Ca5 fluorescence, Mean ± SEM, TRPV1 (10 µM): 10 µM; for Change of Ca5 fluorescence, Mean ± SEM, TRPV1 (10 µM): HEK-293 TRPV1 cells, percentage of predrug baseline; for TRPV1 response, Mean± SEM (N): 30 µM, one-way ANOVA comparison with capsaicin 10 µM; for Emax at 30 µM: HEK293, read-out: Emax ± SEM % TRPV1 (30 µM); for Change in Ca5 fluorescence, individual experiments (CRC raw data): TRPV1 cells
T2 construct: Life Technologies (cells); host or cells: Flp-In T-REx HEK-293
Description: as §1, §3, §2

[1] = HEK-293 EV cells, percentage of predrug baseline

T1 sequence (O75762 whole entry): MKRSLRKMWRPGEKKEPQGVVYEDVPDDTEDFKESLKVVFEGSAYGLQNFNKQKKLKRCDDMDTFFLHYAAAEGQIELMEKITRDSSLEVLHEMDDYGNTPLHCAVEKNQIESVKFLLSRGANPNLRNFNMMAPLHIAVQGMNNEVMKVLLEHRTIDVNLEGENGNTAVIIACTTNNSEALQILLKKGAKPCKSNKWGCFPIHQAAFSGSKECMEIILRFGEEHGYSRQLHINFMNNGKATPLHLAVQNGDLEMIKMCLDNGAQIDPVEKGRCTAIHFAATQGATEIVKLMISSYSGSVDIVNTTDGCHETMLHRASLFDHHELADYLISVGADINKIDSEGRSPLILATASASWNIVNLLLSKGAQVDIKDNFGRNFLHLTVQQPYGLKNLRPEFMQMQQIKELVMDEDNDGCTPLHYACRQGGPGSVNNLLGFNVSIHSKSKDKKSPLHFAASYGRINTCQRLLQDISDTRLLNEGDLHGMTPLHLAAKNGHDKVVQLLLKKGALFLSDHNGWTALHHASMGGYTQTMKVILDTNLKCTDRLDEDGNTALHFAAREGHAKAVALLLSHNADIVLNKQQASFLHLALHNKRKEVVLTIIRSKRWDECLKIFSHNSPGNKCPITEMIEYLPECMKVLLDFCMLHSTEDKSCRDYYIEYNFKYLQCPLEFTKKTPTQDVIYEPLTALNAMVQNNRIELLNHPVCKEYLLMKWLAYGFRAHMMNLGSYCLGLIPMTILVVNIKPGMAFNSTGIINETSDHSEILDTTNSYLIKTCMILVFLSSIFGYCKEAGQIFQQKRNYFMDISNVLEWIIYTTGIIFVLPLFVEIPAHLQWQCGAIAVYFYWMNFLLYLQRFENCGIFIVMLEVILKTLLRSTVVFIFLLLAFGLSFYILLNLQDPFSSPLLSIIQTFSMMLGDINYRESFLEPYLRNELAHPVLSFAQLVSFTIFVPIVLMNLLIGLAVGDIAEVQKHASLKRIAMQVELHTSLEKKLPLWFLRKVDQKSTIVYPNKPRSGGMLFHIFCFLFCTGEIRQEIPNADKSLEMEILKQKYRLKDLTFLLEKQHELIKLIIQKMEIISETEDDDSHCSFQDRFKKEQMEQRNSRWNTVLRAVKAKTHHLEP
T2 sequence (Q8NER1 whole entry): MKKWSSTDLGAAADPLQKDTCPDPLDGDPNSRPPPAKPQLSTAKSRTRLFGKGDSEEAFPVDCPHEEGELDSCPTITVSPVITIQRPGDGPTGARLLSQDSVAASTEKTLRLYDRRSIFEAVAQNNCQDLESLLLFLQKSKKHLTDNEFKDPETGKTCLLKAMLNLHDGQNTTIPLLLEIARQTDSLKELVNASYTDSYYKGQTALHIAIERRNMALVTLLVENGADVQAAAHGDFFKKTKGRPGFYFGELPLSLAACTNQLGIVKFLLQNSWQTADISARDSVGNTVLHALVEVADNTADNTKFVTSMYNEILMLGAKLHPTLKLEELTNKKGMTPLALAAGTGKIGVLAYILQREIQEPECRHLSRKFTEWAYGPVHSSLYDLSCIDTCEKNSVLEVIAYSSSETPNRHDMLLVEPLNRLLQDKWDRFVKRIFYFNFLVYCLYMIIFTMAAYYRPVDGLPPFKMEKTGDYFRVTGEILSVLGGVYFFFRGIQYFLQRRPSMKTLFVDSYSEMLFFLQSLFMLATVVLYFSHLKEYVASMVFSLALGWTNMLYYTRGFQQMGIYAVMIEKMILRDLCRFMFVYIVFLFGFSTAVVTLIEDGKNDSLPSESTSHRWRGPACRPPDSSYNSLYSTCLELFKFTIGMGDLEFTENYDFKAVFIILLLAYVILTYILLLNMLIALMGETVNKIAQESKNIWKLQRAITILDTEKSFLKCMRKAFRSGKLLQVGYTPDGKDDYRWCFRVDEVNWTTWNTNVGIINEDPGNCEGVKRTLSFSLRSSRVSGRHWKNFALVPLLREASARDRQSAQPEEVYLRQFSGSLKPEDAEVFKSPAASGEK

Row | Structure (SMILES) | Change of Ca5 fluorescence, Mean ± SEM, EV (10 µM) (HEK-293 EV cells; [1]) [%] | Elevation of [Ca]i in HEK-293 TRPA1 cells compared with HEK-293 EV cells (human TRPA1) | Change of Ca5 fluorescence, Mean ± SEM, TRPA1 (10 µM) (human TRPA1) [%] | TRPA1 activation at the highest concentration tested (human TRPA1) | TRPA1 response compared with the highest concentration of cinnamaldehyde (300 µM) (human TRPA1) | TRPA1 response, Mean± SEM (N) (human TRPA1) | Emax at 30 µM (human TRPA1) [%] | [Ca]i response (change in fluorescence), individual replicates (human TRPA1; concentration -4.52288 (log)) | [Ca]i response (change in fluorescence), individual replicates (human TRPA1; concentration -5 (log)) | [Ca]i response (change in fluorescence), individual replicates (human TRPA1; concentration -5.52288 (log)) | [Ca]i response (change in fluorescence), individual replicates (human TRPA1; concentration -6 (log)) | Elevation of [Ca]i in HEK-293 TRPV1 cells compared with HEK-293 EV cells (human TRPV1) | Change of Ca5 fluorescence, Mean ± SEM, TRPV1 (10 µM) (human TRPV1) [%] | Emax at 30 µM (human TRPV1) [%] | Change in Ca5 fluorescence, individual experiments (CRC raw data) (human TRPV1; log concentration -4.52288 (M)) | Change in Ca5 fluorescence, individual experiments (CRC raw data) (human TRPV1; log concentration -5 (M)) | Change in Ca5 fluorescence, individual experiments (CRC raw data) (human TRPV1; log concentration -5.52288 (M)) | Change in Ca5 fluorescence, individual experiments (CRC raw data) (human TRPV1; log concentration -6 (M)) | Change in Ca5 fluorescence, individual experiments (CRC raw data) (human TRPV1; log concentration -6.52288 (M)) | Change in Ca5 fluorescence, individual experiments (CRC raw data) (human TRPV1; log concentration -7 (M)) | also measured
1 | CCCCC/C=C\C/C=C\C/C=C\C/C=C\CCCC(=O)OC(CO)CO [2-AG, 2-arachidonoylglycerol] | 4 ± 2 | did not produce a change | 6 ± 1 | activated TRPA1 | significantly smaller | 109 ± 60 | 109 ± 68 | 14.9622 and 7.179 and 134.366 and 9.127 and 431.447 and 54.77 | 4.64 and 4.022 and 10.3661 and 3.3919 and 6.211 and 4.731 | 6.153 and 3.314 and 8.987 and 3.008 and 4.615 and 3.811 | 6.477 and 4.178 and 4.8275 and 2.1815 and 3.7711 and 3.334 | did not produce a notable change | 30 ± 12 | 78 ± 26 | 27.3329 and 112.734 and 162.217 and 44.4524 and 123.109 and 0.2559 | 7.357 and 86.123 and 26.0517 and 22.0298 and 37.7022 and 3.715 | 1.982 and 59.8686 and 3.625 and 7.304 and 11.7183 and 5.763 | 3.178 and 11.4308 and 1.524 and 2.296 and 1.51 and 5.0359 | 2.799 and 5.91 and 1.131 and 13.0737 and 2.188 and 2.217 | 3.868 and 2.533 and 1.007 and 9.752 and 4.95 and 2.563 | [Ca]i response (change in fluorescence), individual replicates (human TRPA1; concentration -6.52288 (log)): 5.571 and 5.908 and 5.712 and 6.071 and 7.256 and 4.936; [Ca]i response (change in fluorescence), individual replicates (human TRPA1; concentration -7 (log)): 4.596 and 9.253 and 10.2641 and 5.393 and 9.276 and 4.379; TRPV1 response, Mean± SEM (N) (human TRPV1): 78± 56
2 | CCCCC/C=C\C/C=C\CCCCCCCC(=O)OC(CO)CO [2-LG, 2-linoleoyl glycerol] | – | – | 6 ± 2 | no effect | significantly smaller | 10± 60 | 10 ± 4 | – | – | – | – | significantly greater | 41 ± 13 | 75 ± 13 | 94.4158 and 105.55 and 25.614 and 76.6153 and 45.9507 and 101.137 | 77.397 and 64.9743 and 11.4263 and 68.0539 and 10.4174 and 14.0616 | 11.4427 and 8.3913 and 3.912 and 22.8641 and 8.0659 and 6.3713 | 1.494 and 8.29 and 4.971 and 3.518 and 4.176 and 6.083 | -0.2355 and 4.786 and 26.5089 and 15.6203 and 3.581 and 2.28 | 0.8392 and 7.338 and 6.807 and 12.2096 and 4.264 and 3.998 | Change of Ca5 fluorescence, Mean ± SEM, EV (10 µM) (HEK-293 EV cells): 4 ± 1%; Change in Ca5 fluorescence, individual experiments (CRC raw data) (human TRPA1; log concentration -4.52288 (M)): 12.5375 and 5.756 and 5.697 and 4.08 and 3.702 and 27.8122; Change in Ca5 fluorescence, individual experiments (CRC raw data) (human TRPA1; log concentration -5 (M)): 11.4202 and 3.2095 and 1.996 and 7.055 and 3.7574 and 11.3273; Change in Ca5 fluorescence, individual experiments (CRC raw data) (human TRPA1; log concentration -5.52288 (M)): 11.369 and 3.556 and 1.657 and 5.485; Change in Ca5 fluorescence, individual experiments (CRC raw data) (human TRPA1; log concentration -6 (M)): 12.4294 and 3.284 and 5.41 and 5.662 and 4.232 and 5.177; Change in Ca5 fluorescence, individual experiments (CRC raw data) (human TRPA1; log concentration -6.52288 (M)): 12.1064 and 3.832 and 1.455 and 7.527; Change in Ca5 fluorescence, individual experiments (CRC raw data) (human TRPA1; log concentration -7 (M)): 15.3703 and 7.007 and 2.201 and 137.719; TRPV1 response, Mean± SEM (N) (human TRPV1): 75± 56
3 | CCCCC/C=C\C/C=C\C/C=C\C/C=C\CCCC(=O)NCCO [AEA, anandamide] | 10 ± 2 | did not produce a change | 78 ± 40 | activated TRPA1 | significantly smaller | 206 ± 60 | 206 ± 60 | 380.839 and 400.035 and 86.0795 and 138.88 and 106.55 and 121.01 | 270.188 and 95.8276 and 43.3617 and 6.8753 and 19.4528 and 34.7169 | 11.1594 and 5.44 and 3.581 and 5.875 | 11.3796 and 3.6077 and 1.689 and 3.893 and 4.817 and 2.419 | significantly greater | 188 ± 36 | 304 ± 55 | 110.333 and 353.13 and 181.656 and 93.5107 and 312.513 and 324.288 | 107.669 and 250.336 and 142.845 and 78.9426 and 274.449 and 272.34 | 104.24 and 119.191 and 18.6933 and 67.9069 and 43.3725 and 39.8495 | 85.0507 and 18.1779 and 2.315 and 21.1299 and 4.82 and -0.1525 | 25.9314 and 10.5855 and 2.141 and 2.529 and 1.6051 and -0.1939 | 9.794 and 11.1798 and 5.889 and 1.561 and 3.7 and 2.135 | [Ca]i response (change in fluorescence), individual replicates (human TRPA1; concentration -6.52288 (log)): 9.429 and 4.648 and 1.238 and 3.414; [Ca]i response (change in fluorescence), individual replicates (human TRPA1; concentration -7 (log)): 11.2147 and 3.27 and 3.337 and 2.558; EC50 (human TRPV1): 7.94 µM; Maximal TRPV1 response compared with the highest concentration of capsaicin (human TRPV1; 30 µM vs capsaicin 10 µM): did not differ
